This assay addresses T1, BACE1 (Homo sapiens, UniProt P56817).
T1 construct: endogenous in cells; host or cells: HEK293 APP cells
The experiment in a line: Cellular Aβ-lowering assay (Abeta 40 AlphaLISA). Format: cell-based. Conditions: HEK293 APP cells; 18-20 hrs incubation; Aβ 40 in culture supernatants by AlphaLISA; read-out: BACE1 cell act. Aβ40 IC50. Here is the method:
Cellular Aβ-lowering assay:
The Abeta 40 AlphaLISA Assay can be used. The HEK293 APP cells were seeded in 96 well Microtiter plates in cell culture medium (Iscove's, plus 10% (v/v) fetal bovine serum, penicillin/streptomycin) to about 80% confluency and the compounds were added at a 3× concentration in ⅓ volume of culture medium (final DMSO concentration was kept at 1% v/v). After 18-20 hrs incubation at 37° C. and 5% CO2 in a humidified incubator, the culture supernatants were harvested for the determination of Aβ 40 concentrations using Perkin-Elmer Human Amyloid beta 1-40 (high specificity) Kit (Cat#AL275C).
In a Perkin-Elmer White Optiplate-384 (Cat#6007290), 2 ul culture supernatants were combined with 2 μl of a 10× AlphaLISA Anti-hAβAcceptor beads+Biotinylated Antibody Anti-Aβ1-40 Mix (50 μg/mL/5 nM). After 1 hour room temperature incubation, 16 μl of a 1.25× preparation of Streptavidin (SA) Donor beads (25 μg/mL) were added and incubated for 30 minutes in the Dark. Light Emission at 615 nm was then recorded using EnVision-Alpha Reader. Levels of Aβ 40 in the culture supernatants were calculated as percentage of maximum signal (cells treated with 1% DMSO without inhibitor). The IC50 values were calculated using the Excel XLfit software.
(In Alpha technology, singlet oxygen from a donor bead excites a nearby acceptor bead.)

Structures are written as SMILES. pIC50: −log10 of the molar value.

T1 sequence (P56817 46-501): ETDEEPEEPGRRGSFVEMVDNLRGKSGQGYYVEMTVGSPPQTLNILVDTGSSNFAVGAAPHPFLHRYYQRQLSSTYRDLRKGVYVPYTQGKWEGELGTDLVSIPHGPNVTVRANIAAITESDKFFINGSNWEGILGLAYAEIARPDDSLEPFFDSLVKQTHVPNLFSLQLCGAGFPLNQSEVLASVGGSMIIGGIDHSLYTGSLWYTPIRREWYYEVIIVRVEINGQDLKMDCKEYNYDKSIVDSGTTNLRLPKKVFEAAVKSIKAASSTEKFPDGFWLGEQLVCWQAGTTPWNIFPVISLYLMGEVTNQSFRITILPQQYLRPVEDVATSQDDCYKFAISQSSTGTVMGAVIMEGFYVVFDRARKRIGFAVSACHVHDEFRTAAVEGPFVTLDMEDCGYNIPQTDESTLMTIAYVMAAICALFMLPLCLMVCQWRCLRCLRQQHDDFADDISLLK

With `C[C@@]1(c2cc(C#Cc3cncc(Cl)c3)ccc2F)C[C@@H](C(F)(F)F)OC(N)=N1` [Example 55, (4S,6S)-4-(5-((5-chloropyridin-3-yl)ethynyl)-2-fluorophenyl)-4-methyl-6-(trifluoromethyl)-5,6-dihydro-4H-1,3-oxazin-2-amine], the pIC50 (as a rule, the IC50 on a negative log10 scale, so that one unit is a factor of ten) was 5.93. Regarding `C[C@@]1(c2cc(C#Cc3cncc(C#N)c3)ccc2F)C[C@@H](C(F)(F)F)OC(N)=N1` [Example 56, 5-[2-[3-[(4S,6S)-2-amino-4-methyl-6-(trifluoromethyl)-5,6-dihydro-1,3-oxazin-4-yl]-4-fluorophenyl]ethynyl]pyridine-3-carbonitrile], the pIC50 is 5.78. The figure for `COc1cc(C#N)cnc1C#Cc1ccc(F)c([C@]2(CF)C[C@@H](C(F)(F)F)OC(N)=N2)c1` [Example 57, 6-((3-((4S,6S)-2-Amino-4-(fluoromethyl)-6-(trifluoromethyl)-5,6-dihydro-4H-1,3-oxazin-4-yl)-4-fluorophenyl)ethynyl)-5-methoxynicotinonitrile] is 6.28. With `CCn1cc(C#Cc2ccc(F)c([C@]3(CF)C[C@@H](C(F)(F)F)OC(N)=N3)c2)cn1` [Example 58, (4S,6S)-4-(5-((1-Ethyl-1H-pyrazol-4-yl)ethynyl)-2-fluorophenyl)-4-(fluoromethyl)-6-(trifluoromethyl)-5,6-dihydro-4H-1,3-oxazin-2-amine], the pIC50 is 4.59. The result for `N#Cc1cnc(C#Cc2ccc(F)c([C@]3(CF)C[C@@H](C(F)(F)F)OC(N)=N3)c2)c(Cl)c1` [Example 59, 6-((3-((4S,6S)-2-Amino-4-(fluoromethyl)-6-(trifluoromethyl)-5,6-dihydro-4H-1,3-oxazin-4-yl)-4-fluorophenyl)ethynyl)-5-chloronicotinonitrile] reads 6.10.

For `N#Cc1ccc(C#Cc2ccc(F)c([C@]3(CF)C[C@@H](C(F)(F)F)OC(N)=N3)c2)cc1` [Example 60, 4-((3-((4S,6S)-2-Amino-4-(fluoromethyl)-6-(trifluoromethyl)-5,6-dihydro-4H-1,3-oxazin-4-yl)-4-fluorophenyl)ethynyl)benzonitrile], the pIC50 was 6.19. Consider `NC1=N[C@](CF)(c2cc(C#Cc3cncc(Cl)c3)ccc2F)C[C@@H](C(F)(F)F)O1` [Example 61, (4S,6S)-4-(5-((5-Chloropyridin-3-yl)ethynyl)-2-fluorophenyl)-4-(fluoromethyl)-6-(trifluoromethyl)-5,6-dihydro-4H-1,3-oxazin-2-amine], for which the pIC50 is 5.46.

In the case of `N#Cc1ccc(C#Cc2ccc(F)c([C@]3(CF)C[C@@H](C(F)(F)F)OC(N)=N3)c2)nc1` [Example 62, 6-((3-((4S,6S)-2-Amino-4-(fluoromethyl)-6-(trifluoromethyl)-5,6-dihydro-4H-1,3-oxazin-4-yl)-4-fluorophenyl)ethynyl)nicotinonitrile], the pIC50 was 6.40.

As to `NC1=N[C@](CF)(c2cc(C#Cc3ncc(Cl)cn3)ccc2F)C[C@@H](C(F)(F)F)O1` [Example 63, (4S,6S)-4-[5-[2-(5-Chloropyrimidin-2-yl)ethynyl]-2-fluorophenyl]-4-(fluoromethyl)-6-(trifluoromethyl)-5,6-dihydro-1,3-oxazin-2-amine], the pIC50 is 6.37.

On to `Cc1cc(C#Cc2ccc(F)c([C@]3(CF)C[C@@H](C(F)(F)F)OC(N)=N3)c2)sn1` [Example 64, (4S,6S)-4-(2-Fluoro-5-((3-methylisothiazol-5-yl)ethynyl)phenyl)-4-(fluoromethyl)-6-(trifluoromethyl)-5,6-dihydro-4H-1,3-oxazin-2-amine], for which the pIC50 was 6.57. The figure for `Cc1cc(C#Cc2ccc(F)c([C@]3(C)C[C@@H](C(F)(F)F)OC(N)=N3)c2)sn1` [Example 65, (4S,6S)-4-(2-Fluoro-5-((3-methylisothiazol-5-yl)ethynyl)phenyl)-4-methyl-6-(trifluoromethyl)-5,6-dihydro-4H-1,3-oxazin-2-amine] is 7.23.

On to `C[C@@]1(c2cc(C#Cc3ccc(C#N)cc3)ccc2F)C[C@@H](C(F)(F)F)OC(N)=N1` [Example 66, 4-((3-((4S,6S)-2-Amino-4-methyl-6-(trifluoromethyl)-5,6-dihydro-4H-1,3-oxazin-4-yl)-4-fluorophenyl)ethynyl)benzonitrile], for which the pIC50 was 6.70. The figure for `C[C@@]1(c2cc(C#Cc3ncc(C#N)s3)ccc2F)C[C@@H](C(F)(F)F)OC(N)=N1` [Example 67, 2-((3-((4S,6S)-2-Amino-4-methyl-6-(trifluoromethyl)-5,6-dihydro-4H-1,3-oxazin-4-yl)-4-fluorophenyl)ethynyl)thiazole-5-carbonitrile] is 6.02; for `C[C@@]1(c2cc(C#Cc3nn(C(F)F)cc3Cl)ccc2F)C[C@@H](C(F)(F)F)OC(N)=N1` [Example 68, (4S,6S)-4-(5-((4-chloro-1-(difluoromethyl)-1H-pyrazol-3-yl)ethynyl)-2-fluorophenyl)-4-methyl-6-(trifluoromethyl)-5,6-dihydro-4H-1,3-oxazin-2-amine] it is 6.80; for `Cc1cc(F)c([C@]2(C)C[C@@H](C(F)(F)F)OC(N)=N2)cc1C#Cc1ncc(C#N)cc1Cl` [Example 69, 6-((5-((4S,6S)-2-Amino-4-methyl-6-(trifluoromethyl)-5,6-dihydro-4H-1,3-oxazin-4-yl)-4-fluoro-2-methylphenyl)ethynyl)-5-chloronicotinonitrile] it is 6.89. The result for `Cc1cc(F)c([C@]2(C)C[C@@H](C(F)(F)F)OC(N)=N2)cc1C#Cc1ccc(C#N)cn1` [Example 70, 6-((5-((4S,6S)-2-Amino-4-methyl-6-(trifluoromethyl)-5,6-dihydro-4H-1,3-oxazin-4-yl)-4-fluoro-2-methylphenyl)ethynyl)nicotinonitrile] reads 6.24; that for `Cc1cc(F)c([C@]2(C)C[C@@H](C(F)(F)F)OC(N)=N2)cc1C#Cc1nn(C(F)F)cc1Cl` [Example 71, (4S,6S)-4-(5-((4-Chloro-1-(difluoromethyl)-1H-pyrazol-3-yl)ethynyl)-2-fluoro-4-methylphenyl)-4-methyl-6-(trifluoromethyl)-5,6-dihydro-4H-1,3-oxazin-2-amine], 6.74; that for `Cc1cc(F)c([C@]2(C)C[C@@H](C(F)(F)F)OC(N)=N2)cc1C#Cc1ncc(Cl)cn1` [Example 72, (4S,6S)-4-(5-((5-Chloropyrimidin-2-yl)ethynyl)-2-fluoro-4-methylphenyl)-4-methyl-6-(trifluoromethyl)-5,6-dihydro-4H-1,3-oxazin-2-amine], 6.96. The result for `Cc1cc(F)c([C@]2(C)C[C@@H](C(F)(F)F)OC(N)=N2)cc1-c1cnccc1F` [Example 73, (4S,6S)-4-(2-Fluoro-5-(4-fluoropyridin-3-yl)-4-methylphenyl)-4-methyl-6-(trifluoromethyl)-5,6-dihydro-4H-1,3-oxazin-2-amine] reads 5.89. As for `Cc1cc(F)c([C@]2(C)C[C@@H](C(F)(F)F)OC(N)=N2)cc1-c1cccc(C#N)c1F` [Example 74, 5′-((4S,6S)-2-Amino-4-methyl-6-(trifluoromethyl)-5,6-dihydro-4H-1,3-oxazin-4-yl)-2,4′-difluoro-2′-methylbiphenyl-3-carbonitrile], the pIC50 is 5.45. The figure for `C[C@@]1(c2cc(C#Cc3ccc(Cl)cc3)ccc2F)C[C@@H](C(F)(F)F)OC(N)=N1` [Example 75, (4S,6S)-4-(5-((4-Chlorophenyl)ethynyl)-2-fluorophenyl)-4-methyl-6-(trifluoromethyl)-5,6-dihydro-4H-1,3-oxazin-2-amine] is 5.84; for `C[C@@]1(c2cc(C#Cc3ccc(Cl)nc3)ccc2F)C[C@@H](C(F)(F)F)OC(N)=N1` [Example 76, (4S,6S)-4-[5-[2-(6-Chloropyridin-3-yl)ethynyl]-2-fluorophenyl]-4-methyl-6-(trifluoromethyl)-5,6-dihydro-1,3-oxazin-2-amine] it is 5.72; for `C[C@@]1(c2cc(-c3cn(-c4ccc(C#N)cn4)nn3)ccc2F)C[C@@H](C(F)(F)F)OC(N)=N1` [Example 77, 6-(4-(3-((4S,6S)-2-Amino-4-methyl-6-(trifluoromethyl)-5,6-dihydro-4H-1,3-oxazin-4-yl)-4-fluorophenyl)-1H-1,2,3-triazol-1-yl)nicotinonitrile] it is 6.74.

The values are drawn from patent US20150376172A1, “FLUORO-[1,3]OXAZINES AS BACE1 INHIBITORS” (HOFFMANN-LA ROCHE INC., priority 2013, published 2015).
